Results on two molecules are retold here after patent publication US8039219B2, “Method of using GPR35 to identify metabolic-stabilizing compounds” (Arena Pharmaceuticals, Inc., priority 2004, dated 2011).

Test [1] concerns mouse GPR35 expression in 3T3-L1 adipocytes. The experiment in a line: TaqMan analysis of mouse GPR35 expression in 3T3-L1 adipocytes after treatments. The conditions noted are these: 10 μM Linoleic Acid, 1 and 24 hours, serum free media; control untreated adipocytes at time 0; FIG. 8. It counts as cell-based. How it is done:
GPR35 expression in 3T3-L1 adipocytes was then analyzed after certain treatments, such as treatment with linoleic acid. Briefly, 3T3-L1 cells were differentiated into adipocytes using a standardized protocol found in Patel Y M, Lane M D. (Role of calpain in adipocyte differentiation. Proc. Natl. Acad. Sci. USA 96:1279-1284, 1999). Cells were then treated for 1 and 24 hours in serum free media containing either 50 nM insulin (Sigma Cat # I-1882), 10 μM Linoleic Acid (Calbiochem Cat # 436305 lot #B52793), 50 pg/ml IL-1Beta (R&D Systems Cat # 401-ML lot #BN034012), 0.5 ng/mL TNF-alpha (R&D Systems Cat# 410-MT lot # CS083051). Control was untreated 3T3-L1 adipocytes at time 0. RNA was then isolated using Trizol method (Invitrogen Cat # 15596-018). cDNA was made using Biorad iScript cDNA Synthesis Kit.
A 1× TaqMan supermix was made in a 5 mL polypropylene tube. Forward and Reverse primers were added to give a 300 nM final concentration; appropriate amount of probe was added to give a final concentration of 200 nM. Total volume per well was 20 μL. 2 μL was cDNA, while the other 18 μL was TaqMan supermix and nuclease-free water. The sequence for primers and the probe were: […]
The thermo cycler conditions used were: (1) initial steps: hold for 2 minutes at 50° C., then hold for 10 minutes at 95° C. […]
(In general: In qPCR the cycle at which signal appears reflects the starting amount.)

The next test has as its target GPR35 (Homo sapiens, UniProt Q9HC97). The conditions noted are these: reported by Wang et al., J. Biol. Chem. 281:22021-22028 (2006); cited from earlier work.

GPR35, sequence (Q9HC97 whole entry, species assumed): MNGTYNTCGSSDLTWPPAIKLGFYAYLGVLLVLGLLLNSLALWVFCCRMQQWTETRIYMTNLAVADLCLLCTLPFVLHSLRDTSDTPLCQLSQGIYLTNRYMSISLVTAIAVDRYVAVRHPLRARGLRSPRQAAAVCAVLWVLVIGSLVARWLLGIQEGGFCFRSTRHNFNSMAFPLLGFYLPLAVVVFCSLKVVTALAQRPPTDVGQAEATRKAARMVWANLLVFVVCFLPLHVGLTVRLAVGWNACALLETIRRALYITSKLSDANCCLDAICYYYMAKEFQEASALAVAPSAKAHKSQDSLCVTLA

`CCCCC/C=C\C/C=C\CCCCCCCC(=O)O` [linoleic acid]: in test [1], the “GPR35 expression in 3T3-L1 adipocytes” value is listed as “significantly increased”.

Regarding `O=C(O)c1cc(=O)c2ccccc2[nH]1` [kynurenic acid], at GPR35, the “ligand for GPR35” value was “ligand for GPR35”.
